Measured values as given in ChEMBL document CHEMBL1127660, “Isolation, structural determination, and biological activity of 6 alpha-hydroxytaxol, the principal human metabolite of taxol” (J Med Chem, 1994).

Tests used:
MOLT-4 = assay: The compound was tested for inhibition concentration against MOLT-4 cell line; type: functional, cell-based; conditions: Homo sapiens
U-937 = assay: The compound was tested for inhibition concentration against U-937 cell line; type: functional, cell-based; conditions: Homo sapiens

## CC(=O)O[C@H]1C(=O)[C@@]2(C)[C@H]([C@H](OC(=O)c3ccccc3)[C@]3(O)C[C@H](OC(=O)[C@H](O)[C@@H](NC(=O)c4ccccc4)c4ccccc4)C(C)=C1C3(C)C)[C@]1(OC(C)=O)CO[C@@H]1C[C@@H]2O [PACLITAXEL]
MOLT-4
  IC50: 1.6 nM
U-937
  IC50: 1 nM
